Laboratory results as given in publication PMC9354954, “Assessing Bioavailability and Bioactivity of 4-Hydroxythiazolidine-2-Thiones, Newly Discovered Glucosinolate Degradation Products Formed During Domestic Boiling of Cabbage” (Frontiers in Nutrition, 2022).

What was measured:
[1] = Antioxidant potential, ABTS assay; conditions: compared to compound free blank
Procedure: (§1) To evaluate the potential of allyl HTT and 4-MSOB HTT to act as antioxidants, ABTS and DPPH were used as model radicals and Trolox as reference antioxidants based on Shalaby and Shanab ([28]). In total, 1.5 mg of ABTS and 0.26 mg potassium peroxodisulfate were dissolved in 4 mL of pure water and incubated in the dark overnight at room temperature. Afterward, 36 mL of MeOH were added to obtain the fresh ABTS working solution. In the case of the DPPH assay, 1.1 mg of DPPH were dissolved in 4 mL of MeOH and incubated for 2 h in the dark at 4°C, followed by the addition of 36 mL of MeOH to obtain the fresh DPPH working solution. Standards of Trolox, allyl HTT, and 4-MSOB HTT were prepared in water/MeOH (90/10, v/v%) at concentrations in the range of 6.25–100 μM. To detect the antioxidant potential, 100 μL of standard or water/MeOH (90/10, v/v%) as control were added to 1,000 μL of ABTS or DPPH working solution, and the extinction was measured directly after mixing and after 6 min of incubation in the dark with a spectrometer (UviLine 9100, Schott Instruments, Mainz, Germany) at 734 nm in the case of ABTS assay and 515 nm in DPPH assay (each prepared as duplicate). The results are reported as mean ± SD of the reduction of the extinction compared to the control.

[2] = Antioxidant potential, DPPH assay; conditions: compared to compound free blank
Procedure: as §1

GSK-3α = test system: GSK-3α; design: method as in PMID 31553649; conditions: read-out: IC50 (50% inhibition) to inhibit isoform GSK-3α; cited from earlier work
GSK-3β = test system: GSK-3β; design: method as in PMID 31553649; conditions: read-out: IC50 (50% inhibition) to inhibit GSK-3β; cited from earlier work
[3] = design: method as in doi:10.1002/14356007.a09_001; conditions: cited from earlier work
HepG2 = test system: HepG2; design: method as in PMID 14578469; conditions: HepG2, 72 h of incubation time; read-out: IC50 (50% inhibition of cell growth); cited from earlier work
[4] = design: method as in PMID 8000299, PMID 9865427; conditions: 10–12 h urine after consumption of horseradish or a mustard paste; cited from earlier work
[5] = test system: NAD(P)H dehydrogenase quinone 1 (NQO1); test: NQO1 activity in HepG2 cells; type: cell-based, human; conditions: 2 μM, 24 h, negative control 145 ± 8
Procedure: (§2) The effect of allyl HTT or 4-MSOB HTT on NAD(P)H dehydrogenase quinone 1 (NQO1) activity was tested for HepG2 cells and HCT116 pTRAF cells. HCT116 pTRAF is a cell line that was transfected with the pTRAF^Nrf2/HIF/NFκB [Johansson et al. ([29])], as described by Kipp et al. ([30]). HCT116 pTRAF cells were cultivated in McCoy's 5A medium + 1% penicillin/streptomycin + 10% FBS + 1% GlutaMAX + 0.2 mg/mL hygromycin B. HepG2 cells in RPMI medium were seeded in a 6-well-plate (sterile, Sarsted, Nümbrecht, Germany) with a density of 350,000 cells/well, and HCT116 pTRAF cells in culture medium without hygromycin B with a density of 100,000 cells/well. After 48 h of incubation under cell culture conditions, the medium was exchanged with the fresh medium as a negative control and a medium with concentrations of 1 μM and 100 μM of allyl HTT or 4-MSOB HTT. Medium containing 2 μM auranofin was used as a positive control. After 24 h of incubation under cell culture conditions, NQO1 activity was analyzed according to Müller et al. ([31]), and the results were reported as mean ± SD. Additionally, the t-test for independent samples per variable was performed to test if concentration-dependent differences exist.

[6] = test system: NAD(P)H dehydrogenase quinone 1 (NQO1); test: NQO1 activity in HCT116 pTRAF cells; type: cell-based; conditions: 2 μM, 24 h, negative control 51 ± 5
Procedure: as §2

[7] = cited from earlier work
endothelial cells = conditions: cited from earlier work
[8] = test system: cultured hepatocytes from human liver transplants; conditions: range of 10 μM and 50 μM; cited from earlier work
[9] = test system: Nrf2 target gene expression in alveolar macrophages and bronchial epithelial cells; conditions: intervention with 150 μM; cited from earlier work

Cc1c(C)c2c(c(C)c1O)CCC(C)(C(=O)O)O2 (racemic) [Trolox, (±)-6-hydroxy-2,5,7,8-tetramethylchromane-2-carboxylic acid, reference compound]
Relative signal reduction of the extinction value of the radical ABTS ([1]; 6.25 µM): 1.3 ± 0.4% | Relative signal reduction of the extinction value of the radical ABTS ([1]; 12.5 µM): 1.9 ± 0.4% | Relative signal reduction of the extinction value of the radical ABTS ([1]; 25 µM): 9.3 ± 0.5% | Relative signal reduction of the extinction value of the radical ABTS ([1]; 50 µM): 16.5 ± 0.4% | Relative signal reduction of the extinction value of the radical ABTS ([1]; 100 µM): 31.2 ± 0.4% | Relative signal reduction of the extinction value of the radical DPPH ([2]; 6.25 µM): 0.8 ± 0.3% | Relative signal reduction of the extinction value of the radical DPPH ([2]; 12.5 µM): 2.8 ± 0.3% | Relative signal reduction of the extinction value of the radical DPPH ([2]; 25 µM): 3.5 ± 0.4% | Relative signal reduction of the extinction value of the radical DPPH ([2]; 50 µM): 8.8 ± 0.6% | Relative signal reduction of the extinction value of the radical DPPH ([2]; 100 µM): 17.5 ± 1.5%

OC1(c2ccccc2)CSC(=S)N1Cc1ccncc1 (stereo not shown) [COB-187]
IC50 (GSK-3α): 0.022 µM | IC50 (GSK-3β): 0.011 µM

CN1CCSC1=S [N-methyl-2-thiazolidinethione]
toxicity [3]: low toxicity

C=CCN=C=S [allyl ITC, allyl isothiocyanate]
IC50 (HepG2): 36 µM | recovery of formed allyl ITC metabolites in urine [4]: 42–54%

CC(=O)OC[C@H]1O[C@@H]([S-])[C@H](OC(C)=O)[C@@H](OC(C)=O)[C@@H]1OC(C)=O.CCP(CC)CC.[Au+] [auranofin, 1-thio-β-D-glucopyranosatotriethyl phosphine gold-2,3,4,6-tetraacetate]
NQO1 activity [5]: 153 ± 4 mU/mg protein | NQO1 activity [6]: 114 ± 7 mU/mg protein

C[S+]([O-])CCCCN=C=S (stereo not shown) [sulforaphane]
IC50 (HepG2): 13 µM | bioavailability [7]: approximately 40% | concentrations inducing apoptosis and cytotoxicity (endothelial cells): 20 to 40 µM | cytotoxicity [8]: no significant cytotoxicity | stimulation in Nrf2 target gene expression [9]: no stimulation
